Each structure is given as a SMILES string.

By IC50 is commonly meant the point on the concentration scale where inhibition reaches its midpoint. A higher IC50 goes with lower potency.

The assay deals with T1, Mer (Homo sapiens, UniProt Q12866).
T1 construct: host or cells: 293A cells (Thermo Fisher #R70507)
T1 sequence (Q12866 21-999): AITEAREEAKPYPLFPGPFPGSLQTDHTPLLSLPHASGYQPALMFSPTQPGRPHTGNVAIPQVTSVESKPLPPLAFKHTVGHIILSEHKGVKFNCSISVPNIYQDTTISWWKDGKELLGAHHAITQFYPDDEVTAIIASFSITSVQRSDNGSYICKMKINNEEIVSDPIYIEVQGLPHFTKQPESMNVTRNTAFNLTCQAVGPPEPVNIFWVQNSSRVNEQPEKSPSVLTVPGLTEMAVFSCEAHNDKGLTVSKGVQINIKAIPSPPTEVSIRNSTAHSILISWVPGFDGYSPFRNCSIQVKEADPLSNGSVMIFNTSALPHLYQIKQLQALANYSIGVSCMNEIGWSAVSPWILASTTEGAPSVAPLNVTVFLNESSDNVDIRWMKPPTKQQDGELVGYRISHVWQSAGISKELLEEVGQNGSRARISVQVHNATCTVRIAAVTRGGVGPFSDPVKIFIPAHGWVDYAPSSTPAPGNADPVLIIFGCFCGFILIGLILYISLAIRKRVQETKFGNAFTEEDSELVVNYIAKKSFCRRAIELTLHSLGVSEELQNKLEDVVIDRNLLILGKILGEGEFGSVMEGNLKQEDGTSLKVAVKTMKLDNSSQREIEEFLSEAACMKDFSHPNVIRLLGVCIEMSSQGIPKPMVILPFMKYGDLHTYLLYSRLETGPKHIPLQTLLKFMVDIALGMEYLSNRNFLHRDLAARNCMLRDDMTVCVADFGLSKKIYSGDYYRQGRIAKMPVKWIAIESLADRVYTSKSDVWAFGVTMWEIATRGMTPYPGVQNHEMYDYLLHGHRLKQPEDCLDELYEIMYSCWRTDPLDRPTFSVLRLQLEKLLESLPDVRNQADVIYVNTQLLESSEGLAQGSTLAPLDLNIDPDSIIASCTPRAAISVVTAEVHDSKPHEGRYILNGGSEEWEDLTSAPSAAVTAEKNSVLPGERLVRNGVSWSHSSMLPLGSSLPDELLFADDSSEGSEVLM
Description: Mer autophosphorylation ELISA in transient transfected 293A cells. The format is cell-based. The note with it: cellular activity; MERTK-transfected 293A cells, phospho-Mer ELISA. As to the method: 293A cells (Thermo Fisher #R70507) were seeded at 1.5×10^6 cells/well onto 100 mm dish (Greiner #664169), in DMEM (Thermo Fisher #11995-040) containing 10% FBS (Thermo Fisher #26140-079), 1% MEM NEAA (Thermo Fisher #11140-050), 1% GlutaMax (Thermo Fisher #35050-061), and 1% Penicillin Streptomycin (Thermo Fisher #15140-122). 293A cells were incubated at 37° C., 5% CO2 for 24 h and then transfected with 6 μg MERTK DNA (Genecopoeia #EX-Z8208-M02) using TransIT LT1 transfection reagent (Mirus-Bio #MIR2305). After 24 h incubation, the transfected 293A cells were seeded at 1×10^5 cells/well onto 96-well plates (Corning #3904) in DMEM growth medium overnight. Test compounds were serially diluted to produce an 8-point dose curve in fresh serum-free medium to a final concentration of 0.3% DMSO (vehicle) and added to the cells and incubated for 1 h. Cells were then immediately lysed with 150 μL of cold 1× lysis buffer [20 mM Tris, 137 mM sodium chloride, 2 mM EDTA, 10% glycerol, 1% NP-40 alternative, 1 mM activated sodium orthovanadate, 1 mM PefaBloc SC (Sigma-Aldrich #11429868001), protease/phosphatase inhibitor tablet (Thermo Fisher #A32959)]. Lysates were clarified by centrifugation and 50 μL/well added into the human phospho-Mer DuoSet IC ELISA (R&D Systems #DYC2579-2). Assay was performed according to manufacturer's instructions and sample phospho-Mer concentrations were extrapolated using human phospho-Mer control (R&D Systems #841793) as a standard. Positive control wells (100% activity) contained DMSO-treated cell lysates. Negative control wells (0% activity) contained reference inhibitor-treated cell lysates. IC50 values were calculated by nonlinear regression analysis using a 4-parameter logistic curve fit in ActivityBase XE (IDBS).
On the technique in general: An ELISA detects its analyte on a solid surface through an enzyme-linked reagent.
On to `Cn1ccc(-c2ccc3c(Oc4ccc(NC(=O)C5(C(=O)Nc6ccc(F)cc6)CC5)cc4)ccnc3c2)cc1=O` [Compound 117, 1-N′-(4-Fluorophenyl)-1-N-[4-[7-(1-methyl-2-oxopyridin-4-yl)quinolin-4-yl]oxyphenyl]cyclopropane-1,1-dicarboxamide], for which the IC50 fell in the range of 0.01 to 0.1 µM.

`O=C(Nc1ccc(F)cc1)C1(C(=O)Nc2ccc(Oc3ccnc4cc(-c5cncs5)ccc34)cc2)CC1` [Compound 116, 1-N′-(4-Fluorophenyl)-1-N-[4-[7-(1,3-thiazol-5-yl)quinolin-4-yl]oxyphenyl]cyclopropane-1,1-dicarboxamide]: the IC50 is 0.01 to 0.1 µM.

For the compound `O=C(Nc1ccc(F)cc1)C1(C(=O)Nc2ccc(Oc3ccnc4cc(-c5cnn(C(F)F)c5)ccc34)c(F)c2)CC1` [Compound 123, 1-N′-[4-[7-[1-(Difluoromethyl)pyrazol-4-yl]quinolin-4-yl]oxy-3-fluorophenyl]-1-N-(4-fluorophenyl)cyclopropane-1,1-dicarboxamide], the IC50 lay in the range of 0.01 to 0.1 µM.

For `Cc1cc2c(Oc3cc(Cl)c(NC(=O)C4(C(=O)Nc5ccc(F)cc5)CC4)cc3F)ccnc2cc1-c1cnn(C)c1` [Compound 112, 1-N′-[2-Chloro-5-fluoro-4-[6-methyl-7-(1-methylpyrazol-4-yl)quinolin-4-yl]oxyphenyl]-1-N-(4-fluorophenyl)cyclopropane-1,1-dicarboxamide], the IC50 lay within 0.01 to 0.1 µM.

Consider `COc1cc(-c2ccc3c(Oc4ccc(NC(=O)C5(C(=O)Nc6ccc(F)cc6)CC5)cc4)ccnc3c2)ccn1` [Compound 31, 1-N′-(4-Fluorophenyl)-1-N-[4-[7-(2-methoxypyridin-4-yl)quinolin-4-yl]oxyphenyl]cyclopropane-1,1-dicarboxamide], for which the IC50 lay within 0.01 to 0.1 µM.

As to `O=C(Nc1ccc(F)cc1)C1(C(=O)Nc2ccc(Oc3ccnc4cc(-c5cccnc5)ccc34)c(F)c2)CC1` [Compound 113, 1-N-(4-Fluorophenyl)-1-N′-[3-fluoro-4-(7-pyridin-3-ylquinolin-4-yl)oxyphenyl]cyclopropane-1,1-dicarboxamide], the IC50 was 0.01 to 0.1 µM.

On to `Nc1ccc(-c2ccc3c(Oc4ccc(NC(=O)C5(C(=O)Nc6ccc(F)cc6)CC5)cc4)ccnc3c2)cn1` [Compound 38, 1-N-[4-[7-(6-Aminopyridin-3-yl)quinolin-4-yl]oxyphenyl]-1-N′-(4-fluorophenyl)cyclopropane-1,1-dicarboxamide], for which the IC50 lay in the range of 0.01 to 0.1 µM.

In the case of `COc1cncc(-c2ccc3c(Oc4ccc(NC(=O)C5(C(=O)Nc6ccc(F)cc6)CC5)cc4)ccnc3c2)c1` [Compound 47, 1-N′-(4-Fluorophenyl)-1-N-[4-[7-(5-methoxypyridin-3-yl)quinolin-4-yl]oxyphenyl]cyclopropane-1,1-dicarboxamide], the IC50 fell in the range of 0.01 to 0.1 µM.

`Cc1cc2c(Oc3ccc(NC(=O)C4(C(=O)Nc5ccc(F)cc5)CC4)cc3F)ccnc2cc1-c1ncc[nH]1` [Compound 122, 1-N′-[3-Fluoro-4-[7-(1H-imidazol-2-yl)-6-methylquinolin-4-yl]oxyphenyl]-1-N-(4-fluorophenyl)cyclopropane-1,1-dicarboxamide]: the IC50 is 0.01 to 0.1 µM.

`O=C(Nc1ccc(F)cc1)C1(C(=O)Nc2ccc(Oc3ccnc4cc(-c5ccc(O)nc5)ccc34)cc2)CC1` [Compound 51, 1-N′-(4-Fluorophenyl)-1-N-[4-[7-(6-hydroxypyridin-3-yl)quinolin-4-yl]oxyphenyl]cyclopropane-1,1-dicarboxamide]: the IC50 was 0.01 to 0.1 µM.

Consider `O=C(Nc1ccc(F)cc1)C1(C(=O)Nc2ccc(Oc3ccnc4cc(-c5ccnc(F)c5)ccc34)cc2)CC1` [Compound 33, 1-N′-(4-Fluorophenyl)-1-N-[4-[7-(2-fluoropyridin-4-yl)quinolin-4-yl]oxyphenyl]cyclopropane-1,1-dicarboxamide], for which the half-inhibitory concentration (IC50) was 0.01 to 0.1 µM.

For `Cn1cc(-c2ccc3c(Oc4ccc(NC(=O)C5(C(=O)Nc6ccc(F)cc6)CC5)cc4)ccnc3c2)ccc1=O` [Compound 119, 1-N′-(4-Fluorophenyl)-1-N-[4-[7-(1-methyl-6-oxopyridin-3-yl)quinolin-4-yl]oxyphenyl]cyclopropane-1,1-dicarboxamide], the IC50 was in the range of 0.01 to 0.1 µM.

In turn, `N#Cc1cc(-c2ccc3c(Oc4ccc(NC(=O)C5(C(=O)Nc6ccc(F)cc6)CC5)cc4)ccnc3c2)ccn1` [Compound 34, 1-N-[4-[7-(2-Cyanopyridin-4-yl)quinolin-4-yl]oxyphenyl]-1-N′-(4-fluorophenyl)cyclopropane-1,1-dicarboxamide] had an IC50 of 0.01 to 0.1 µM.

In turn, `O=C(Nc1ccc(F)cc1)C1(C(=O)Nc2ccc(Oc3ccnc4cc(-c5cnc6[nH]ncc6c5)ccc34)cc2)CC1` [Compound 39, 1-N′-(4-Fluorophenyl)-1-N-[4-[7-(1H-pyrazolo[3,4-b]pyridin-5-yl)quinolin-4-yl]oxyphenyl]cyclopropane-1,1-dicarboxamide] gave an IC50 of 0.01 to 0.1 µM.

`Cc1cc2c(Oc3cc(F)c(NC(=O)C4(C(=O)Nc5ccc(F)cc5)CC4)cc3F)ccnc2cc1-c1ncc[nH]1` [Compound 121, 1-N′-[2,5-Difluoro-4-[7-(1H-imidazol-2-yl)-6-methylquinolin-4-yl]oxyphenyl]-1-N-(4-fluorophenyl)cyclopropane-1,1-dicarboxamide] yielded an IC50 of 0.01 to 0.1 µM.

As to `O=C(Nc1ccc(F)cc1)C1(C(=O)Nc2ccc(Oc3ccnc4cc(-c5cncc(F)c5)ccc34)cc2)CC1` [Compound 45, 1-N′-(4-Fluorophenyl)-1-N-[4-[7-(5-fluoropyridin-3-yl)quinolin-4-yl]oxyphenyl]cyclopropane-1,1-dicarboxamide], the IC50 is 0.01 to 0.1 µM.

In turn, `CN1CCN(c2cc(-c3ccc4c(Oc5ccc(NC(=O)C6(C(=O)Nc7ccc(F)cc7)CC6)cc5)ccnc4c3)ccn2)CC1` [Compound 111, 1-N′-(4-Fluorophenyl)-1-N-[4-[7-[2-(4-methylpiperazin-1-yl)pyridin-4-yl]quinolin-4-yl]oxyphenyl]cyclopropane-1,1-dicarboxamide] came in with a 50% inhibitory concentration (IC50) of 0.01 to 0.1 µM.

The compound `Cc1cc(-c2ccc3c(Oc4ccc(NC(=O)C5(C(=O)Nc6ccc(F)cc6)CC5)cc4)ccnc3c2)ccn1` [Compound 30, 1-N′-(4-Fluorophenyl)-1-N-[4-[7-(2-methylpyridin-4-yl)quinolin-4-yl]oxyphenyl]cyclopropane-1,1-dicarboxamide] came in with a concentration for half-maximal inhibition (IC50) of 0.01 to 0.1 µM.

For the compound `O=C(Nc1ccc(F)cc1)C1(C(=O)Nc2ccc(Oc3ccnc4cc(-c5cnn6c5CCC6)ccc34)cc2)CC1` [Compound 29, 1-N-[4-[7-(5,6-Dihydro-4H-pyrrolo[1,2-b]pyrazol-3-yl)quinolin-4-yl]oxyphenyl]-1-N′-(4-fluorophenyl)cyclopropane-1,1-dicarboxamide], the IC50 lay within 0.01 to 0.1 µM.

`O=C(Nc1ccc(F)cc1)C1(C(=O)Nc2ccc(Oc3ccnc4cc(-c5ccc(F)nc5)ccc34)cc2)CC1` [Compound 41, 1-N′-(4-Fluorophenyl)-1-N-[4-[7-(6-fluoropyridin-3-yl)quinolin-4-yl]oxyphenyl]cyclopropane-1,1-dicarboxamide] displayed an IC50 of 0.01 to 0.1 µM.

Compound `CC(C)Oc1ccc(-c2ccc3c(Oc4ccc(NC(=O)C5(C(=O)Nc6ccc(F)cc6)CC5)cc4)ccnc3c2)cn1` [Compound 50, 1-N′-(4-Fluorophenyl)-1-N-[4-[7-(6-propan-2-yloxypyridin-3-yl)quinolin-4-yl]oxyphenyl]cyclopropane-1,1-dicarboxamide] came in with an IC50 of 0.1 to 0.3 µM.

The values are drawn from patent publication US12503438B2, “Compounds for the treatment of kinase-dependent disorders” (Exelixis, Inc., priority 2019, dated 2025).
